From patent US12338199B2, “Bis-octahydrophenanthrene carboxamides and protein conjugates thereof” (REGENERON PHARMACEUTICALS, INC., priority 2017, dated 2025)
pEC50, pIC50: −log10 of the molar value. Values joined by “and” are separate entries in the source; they are usually repeats but may differ in a detail not shown here. Equal values may be shown once. Read-outs that look alike come from different tables or passages of the source.

Experiments:
THP1/LXR-Luc/Her2 cells = test: THP1/LXR-Luc/Her2 luciferase reporter bioassay; assay type: cell-based; settings: Homo sapiens
From the text: A bioassay was developed to assess the activity of LXR agonists after internalization of an agonist or of a ncADC into cells and binding to LXR, a nuclear receptor, using a commercially available LXR reporter (referred to as LXR-Luc) that contains the firefly luciferase gene under control by minimal CMV promoter and tandem repeats of the LXR transcriptional response element. For this assay, a THP1 cell line, which is a human monocytic leukaemia line, was engineered to express full length human Her2 (expressing amino acids M1 through V1255 of accession number NP_004439.2). The subsequent stable cell line was further transduced with a Cignal LXR Luc Reporter (Qiagen, Cat # CLS-7041L). The resulting stable cell line is referred to herein as THP1/Her2/LXR-Luc. The Her2 cell surface expression on THP1/Her2/LXR-Luc cell line was confirmed by FACS (data not shown).
This example assessed the ability of the LXR agonists provided herein, reference compounds, and anti-Her2 antibody-LXR ncADC to activate LXR. The samples were tested in the THP1/LXR-Luc/Her2 bioassay. For the assay, either THP1/LXR-Luc cells or THP1/LXR-Luc/Her2 cells were seeded onto white 96 well plates at 30,000 cells/well in media containing RPMI supplemented with 10% FBS and pencillin/streptomycin (complete media). Subsequently 3-fold serial dilutions of antibody drug conjugates, unconjugated antibodies, or free payloads were added to the cells at final concentration ranging from 100 nM to 0.01 nM. After 48-hour or 72-hour incubation, luciferase activity was determined after the addition of One-Glo™ reagent (Promega, Cat # E6130) to each well of cells. Relative light units (RLUs) were measured on a Victor luminometer (PerkinElmer) and the EC5o values were determined using a four-parameter logistic equation over a 10-point dose response curve (GraphPad Prism) (FIG. 15). The fold activation is calculated based on the maximum activation of the free payload 9d.

ABCG1 = ABCG1 mRNA induction in differentiated THP-1 macrophages (TaqMan); assay type: cell-based, human; settings: THP1 macrophages, 24-hour treatment; magnitude in words
Protocol: (§1) To determine the ability of LXR agonists to activate ABCA1 and ABCG1 genes, the mRNA levels of these two genes in differentiated macrophages was measured. […] Cells were differentiated into macrophages by treatment with 100 nM Phorbol-12 myristate 13-acetate (Sigma, # P8139), which was added to the media described above, for 72 hours. […] Chloroform was then used for phase separation. The aqueous phase, containing total RNA, was purified using MagMAX™-96 for Microarrays Total RNA Isolation Kit (Ambion, Cat # AM1830) and reverse-transcribed into cDNA using SuperScript® VILO™ Master Mix (Invitrogen, Cat #11755050) as per the manufacturer's instructions. TaqMan® was performed using Gene Expression Master Mix, the ABI 7900HT Sequence Detection System (Applied Biosystems) and the primers and probes indicated below in Table 9. The GAPDH gene was used as the internal control gene to normalize any cDNA input differences.

LXR beta = target: T1, LXR beta (Homo sapiens, UniProt P55055); test: LanthaScreen TR-FRET LXR beta Coactivator Assay (cell-free binding); settings: TR-FRET, 12-point curve; read-out: Cell free binding LXRβ IC50
T1 construct: LXR alpha or beta LBD-GST; purchased ThermoFisher PV4658
T1 sequence (P55055 222-460 limits assumed): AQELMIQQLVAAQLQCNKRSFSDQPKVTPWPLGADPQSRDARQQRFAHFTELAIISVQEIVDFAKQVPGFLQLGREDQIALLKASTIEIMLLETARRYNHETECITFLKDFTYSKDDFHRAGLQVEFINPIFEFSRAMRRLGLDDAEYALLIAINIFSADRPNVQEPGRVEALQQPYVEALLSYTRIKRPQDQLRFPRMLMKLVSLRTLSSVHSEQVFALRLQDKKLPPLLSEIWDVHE

ABCA1 = ABCA1 mRNA induction in differentiated THP-1 macrophages (TaqMan); assay type: cell-based, human; settings: THP1 macrophages, 24-hour treatment; magnitude in words
Protocol: as §1

THP-1 cells = test: BODIPY-cholesterol efflux in THP-1 macrophages; assay type: cell-based, human; settings: for pEC50: Homo sapiens, THP-1
Protocol: The ability of anti-MSR1 antibody-LXR conjugates to activate cholesterol efflux in a human macrophage cell line (THP-1; ATCC Catalog # TIB-202), was assessed using a fluorescent cholesterol analog.
Cells were differentiated into macrophages by addition of 100 nM Phorbol-12 myristate 13-acetate (Sigma, Catalog #P 8139) to the media and subjected to further incubation for 96 hours.
Percentage of BODIPY-cholesterol efflux was calculated using the following formula: [fluorescence in acceptor media/(fluorescence in acceptor media+fluorescence in cell lysate)]×100. Table 15 provides activated cholesterol efflux for the tested articles, and FIG. 15 illustrates the data in graph form.

SMILES: C[C@]1(C(=O)NC(=O)[C@@]2(C)CCC[C@]3(C)c4cc(O)ccc4CC[C@@H]23)CCC[C@]2(C)c3cc(N)ccc3CC[C@@H]12 [Compound 9d, (1S,4aS,10aR)—N-[(1S,4aS,10aR)-6-Amino-1,4a-dimethyl-1,2,3,4,4a,9,10,10a-octahydrophenanthrene-1-carbonyl]-6-hydroxy-1,4a-dimethyl-1,2,3,4,4a,9,10,10a-octahydrophenanthrene-1-carboxamide]
- pEC50 (THP1/LXR-Luc/Her2 cells; THP-1, 48 h, 48-hour time point): 8.80
- pEC50 (THP1/LXR-Luc/Her2 cells; THP-1, 48 h, 48 hours, unit inferred, values correspond to M): 8.80
- pEC50 (THP1/LXR-Luc/Her2 cells; THP-1, 72 h, 72-hour time point): 8.55
- pEC50 (THP1/LXR-Luc/Her2 cells; THP-1, 72 h, 72 hours): 8.55
- ABCG1 induction EC50 (ABCG1): sub-picomolar
- pIC50 (LXR beta): > 8.00
- ABCA1 induction EC50 (ABCA1): sub-picomolar
- Maximum efflux (%) (THP-1 cells; 24-hour treatment, BODIPY-cholesterol efflux): 36.6% and 36.7%
- pEC50 (THP-1 cells; 24-hour treatment, read-out: Cholesterol Efflux activation EC50): 9.82
- pEC50 (THP-1 cells; after 24 hours, read-out: Cholesterol efflux EC50): 9.82
